Entries after “also recorded” stand apart in the source; their conditions may differ. Read-outs that look alike come from different tables or passages of the source.
How the values were obtained:
[1] = Caco-2 permeability; settings: human
[2] = Stability in aqueous solutions; settings: pH 2, pH 7.4, pH 9
[3] = tested on: mouse hippocampal HT22 cells; assay: HT22 cell culture assay, glutamate-induced cell death (LDH release); type: cell-based; settings: for protection against oxidative glutamate toxicity in HT22 cells: 5 mM glutamate, increasing amounts or concentration not stated
Description: Glutamate-induced oxidative stress^67-69 leads to time-dependent cell death mediated by 12/15-LOX in both immature primary neurons and mouse hippocampal HT22 cells.^38,46,70 Primary neurons require a lengthy isolation procedure and also show relatively modest increases in cell death in this assay, indicating they are not suited for a high-throughput testing approach. In contrast, HT22 cells grow quickly and consistently feature low cell death under control conditions, but a majority of cells die after glutamate treatment (50-100%). This assay can be adapted to 96-well plates, allowing for moderate to high throughput against the screened compounds. The characteristic Z′ score used to evaluate the technical quality and suitability as screening tool averaged 0.77 over ten experiments (SD=0.13; range, 0.49-0.94), where values above 0.5 indicate an excellent assay.^71
Treatment consisted of exchanging the medium to 100 μl fresh culturing medium and adding 5 mM glutamate (stock solution 0.5 M in PBS) in the presence or absence of DMSO (maximum 0.1% final concentration) as control or the indicated concentrations of 1. […] Three independent experiments were evaluated. […] The eicosanoids containing fractions were transferred to scintillation vials followed by addition of perdeuterated 13-HODE (13-d31-HODE), as an internal control for extraction and 1.5% glacial acetic acid for protein precipitation. […] The dry samples were then re-constituted in methanol and an internal control 12-deuterated (d8)-HETE (12-d8-HETE), was added to each sample for detector response variation and it was assumed that the change in detector response for 12-HETE and 12-d8-HETE would be similar. […] The Collision Induced Dissociation (CID) was used for MS-MS with collision energy of 35 eV.

[4] = tested on: filament model of transient focal ischemia; assay: Filament model of transient focal ischemia; type: in vivo, mouse; settings: 90 minutes ischemia, sacrifice at 24 hours
[5] = molecular target: human platelet 12-lipoxygenase (12-LOX) (Homo sapiens (Human), UniProt P18054); assay: Lipoxygenase UV-Vis assay, 12-LOX; type: biochemical; settings: selectivity profiling
Description: (§1) Human 5-lipoxygenase (5-LOX) was expressed as a non-tagged protein and used as a crude ammonium sulfate protein fraction, as published previously.^77
(§2) The inhibitor compounds were screened initially using one concentration point on a Perkin-Elmer Lambda 40 UV-Vis spectrometer. […] The reactions were initiated by adding either of ˜40 nM 12-LOX, 40 nM 12/15-LOX, 0.5 μM 15-LOX-2 or ˜200 nM 5-LOX (ammonium sulfate suspension) to a cuvette with a 2 mL reaction buffer constantly stirred using a magnetic stir bar at room temperature (22° C.). […] Inhibitors were stored at −20° C. in DMSO.

[6] = tested on: warfarin-pretreated mice subjected to transient focal ischemia; assay: Warfarin-associated hemorrhage following experimental stroke (transient focal ischemia); type: in vivo, mouse
Description: A) In warfarin-pretreated mice subjected to transient focal ischemia with 3 h occlusion, 50 mg/kg ML351 was administered by i.p. injection 3 h after onset of ischemia (FIG. 9A). This mimics the situation of a patient on warfarin who experiences a severe stroke with hemorrhagic transformation.
B) To investigate if administering tPA to patients with an ischemic stroke who are on warfarin can be made safe, warfarin-pretreated mice were subjected to 2 h of transient focal ischemia, then treated with tPA 4 h after onset of ischemia, and administered 50 mg/kg ML351 by i.p. injection concurrently with tPA.

[7] = Mouse plasma stability
[8] = tested on: mouse distal MCAO model of permanent focal ischemia; set-up: species or system C57B16J mice; settings: in vivo
Description: To study 1 in a model of distal middle cerebral artery occlusion (distal MCAO), ^74 C57B16J mice were treated with ferric chloride (FeCl3) to cause occlusion of the distal middle cerebral artery. […] The body temperature was monitored by a rectal probe and maintained at 37±0.3° C. by a homoeothermic blanket control unit. Briefly, mice were placed in a stereotaxic frame, the scalp was opened and right temporal muscle was dissected. The area between zygomatic arch and squamous bone was thinned by a high-speed drill and cooled with saline. The trace of MCA was visualized and thin bony film was lifted up by forceps. After that a laser-Doppler flowmetry probe was placed 2 mm posterior, 6 mm lateral to the bregma to monitor the regional cerebral blood flow (rCBF). After obtaining a stable epoch of the pre-ischemic rCBF, a piece of 10% FeCl3 saturated filter paper was placed over the intact dura mater along the trace of MCA and the rCBF was continuously monitored during the next 3 hours. After 2 hours of ischemia, either 50 mg/kg 1, or DMSO vehicle was injected intraperitoneally. Following sacrifice at 24 hours, brains were sectioned into 1 mm slices, and infarct sizes were determined by staining with 2,3,5-triphenyltetrazolium chloride (TTC), using the indirect method (infarct volume=contralateral volume minus uninfarcted ipsilateral volume). […]

[9] = PAMPA permeability
[10] = In vivo PK (mouse) at 30 mpk IP
[11] = Microsomal stability, rat liver microsomes; settings: absence of NADPH; 1 hr period; species not distinguished
[12] = Aqueous kinetic solubility; settings: PBS buffer (pH 7.4)
[13] = molecular target: human reticulocyte 15-lipoxygenase-1 (12/15-LOX) (Homo sapiens (Human), UniProt P16050); assay: Lipoxygenase UV-Vis cuvette-based assay, 12/15-LOX; type: biochemical; settings: for 12/15-LOX inhibition in words: SAR discussion, human 12/15-LOX
Description: as §1, §2

[14] = molecular target: Human 5-lipoxygenase (5-LOX) (Homo sapiens (Human), UniProt P09917); assay: Lipoxygenase UV-Vis assay, 5-LOX; type: biochemical; settings: selectivity profiling
Description: as §1, §2

[15] = molecular target: human epithelial 15-lipoxygenase-2 (15-LOX-2) (Homo sapiens (Human), UniProt O15296); assay: Lipoxygenase UV-Vis assay, 15-LOX-2; type: biochemical; settings: selectivity profiling
Description: as §1, §2

[16] = male, CD1, mouse, brain, ip, 30 mg/kg
[17] = male, CD1, mouse, plasma, ip, 30 mg/kg
[18] = UV-Vis cuvette-based assay in triplicate, 10 μM AA, read-out: IC50 (μM) [±SD (μM)]

human platelet 12-lipoxygenase (12-LOX), sequence (P18054 whole entry): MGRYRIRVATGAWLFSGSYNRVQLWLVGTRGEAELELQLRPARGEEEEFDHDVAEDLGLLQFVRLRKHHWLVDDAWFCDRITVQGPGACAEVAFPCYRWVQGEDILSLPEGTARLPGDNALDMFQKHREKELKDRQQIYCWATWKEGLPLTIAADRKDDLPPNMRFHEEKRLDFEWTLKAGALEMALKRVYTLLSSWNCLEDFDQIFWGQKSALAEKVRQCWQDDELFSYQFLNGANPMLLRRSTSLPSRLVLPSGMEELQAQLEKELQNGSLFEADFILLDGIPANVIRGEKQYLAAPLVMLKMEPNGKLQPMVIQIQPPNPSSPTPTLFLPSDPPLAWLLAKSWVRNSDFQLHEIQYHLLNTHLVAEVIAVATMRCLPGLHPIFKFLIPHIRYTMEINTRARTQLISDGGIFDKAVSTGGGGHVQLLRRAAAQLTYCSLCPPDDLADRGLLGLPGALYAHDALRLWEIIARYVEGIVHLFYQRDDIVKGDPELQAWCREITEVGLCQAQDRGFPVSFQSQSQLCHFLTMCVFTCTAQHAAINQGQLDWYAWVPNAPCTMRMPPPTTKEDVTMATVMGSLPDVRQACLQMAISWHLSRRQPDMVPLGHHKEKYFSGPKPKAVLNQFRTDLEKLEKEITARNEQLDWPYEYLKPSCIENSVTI
human reticulocyte 15-lipoxygenase-1 (12/15-LOX), sequence (P16050 whole entry): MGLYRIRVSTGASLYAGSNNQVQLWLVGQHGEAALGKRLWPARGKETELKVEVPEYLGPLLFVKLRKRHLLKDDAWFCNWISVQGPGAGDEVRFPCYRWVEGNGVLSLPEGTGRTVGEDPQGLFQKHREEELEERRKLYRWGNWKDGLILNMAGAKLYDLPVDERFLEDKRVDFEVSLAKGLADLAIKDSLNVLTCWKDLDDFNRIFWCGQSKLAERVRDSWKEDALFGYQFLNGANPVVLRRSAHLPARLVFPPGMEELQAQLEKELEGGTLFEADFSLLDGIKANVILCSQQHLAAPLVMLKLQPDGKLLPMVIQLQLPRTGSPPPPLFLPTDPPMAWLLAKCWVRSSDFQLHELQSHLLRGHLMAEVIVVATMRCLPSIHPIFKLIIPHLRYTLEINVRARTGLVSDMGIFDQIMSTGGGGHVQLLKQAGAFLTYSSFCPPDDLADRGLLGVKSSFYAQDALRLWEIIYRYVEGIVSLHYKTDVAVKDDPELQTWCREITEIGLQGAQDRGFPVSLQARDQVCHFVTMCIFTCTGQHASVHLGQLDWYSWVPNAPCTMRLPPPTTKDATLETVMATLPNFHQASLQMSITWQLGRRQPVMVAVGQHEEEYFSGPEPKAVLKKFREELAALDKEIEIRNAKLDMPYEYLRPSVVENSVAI
Human 5-lipoxygenase (5-LOX), sequence (P09917 whole entry): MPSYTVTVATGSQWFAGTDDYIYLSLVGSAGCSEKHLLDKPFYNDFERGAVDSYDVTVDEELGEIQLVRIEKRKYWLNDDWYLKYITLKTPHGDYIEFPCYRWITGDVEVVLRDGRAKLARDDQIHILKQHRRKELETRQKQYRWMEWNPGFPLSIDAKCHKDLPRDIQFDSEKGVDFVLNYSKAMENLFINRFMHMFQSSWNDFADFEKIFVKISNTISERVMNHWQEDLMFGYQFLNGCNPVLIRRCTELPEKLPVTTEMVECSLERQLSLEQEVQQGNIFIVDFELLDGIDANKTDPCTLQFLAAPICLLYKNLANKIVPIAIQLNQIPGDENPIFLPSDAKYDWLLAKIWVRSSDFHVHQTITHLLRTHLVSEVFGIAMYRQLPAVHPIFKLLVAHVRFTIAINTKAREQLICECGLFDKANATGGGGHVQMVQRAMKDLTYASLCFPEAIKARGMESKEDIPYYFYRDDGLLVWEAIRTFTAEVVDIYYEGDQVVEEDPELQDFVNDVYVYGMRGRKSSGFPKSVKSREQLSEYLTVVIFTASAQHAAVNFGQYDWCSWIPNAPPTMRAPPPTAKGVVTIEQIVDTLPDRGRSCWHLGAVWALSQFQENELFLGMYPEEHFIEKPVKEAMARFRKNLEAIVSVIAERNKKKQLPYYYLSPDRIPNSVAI
human epithelial 15-lipoxygenase-2 (15-LOX-2), sequence (O15296 whole entry): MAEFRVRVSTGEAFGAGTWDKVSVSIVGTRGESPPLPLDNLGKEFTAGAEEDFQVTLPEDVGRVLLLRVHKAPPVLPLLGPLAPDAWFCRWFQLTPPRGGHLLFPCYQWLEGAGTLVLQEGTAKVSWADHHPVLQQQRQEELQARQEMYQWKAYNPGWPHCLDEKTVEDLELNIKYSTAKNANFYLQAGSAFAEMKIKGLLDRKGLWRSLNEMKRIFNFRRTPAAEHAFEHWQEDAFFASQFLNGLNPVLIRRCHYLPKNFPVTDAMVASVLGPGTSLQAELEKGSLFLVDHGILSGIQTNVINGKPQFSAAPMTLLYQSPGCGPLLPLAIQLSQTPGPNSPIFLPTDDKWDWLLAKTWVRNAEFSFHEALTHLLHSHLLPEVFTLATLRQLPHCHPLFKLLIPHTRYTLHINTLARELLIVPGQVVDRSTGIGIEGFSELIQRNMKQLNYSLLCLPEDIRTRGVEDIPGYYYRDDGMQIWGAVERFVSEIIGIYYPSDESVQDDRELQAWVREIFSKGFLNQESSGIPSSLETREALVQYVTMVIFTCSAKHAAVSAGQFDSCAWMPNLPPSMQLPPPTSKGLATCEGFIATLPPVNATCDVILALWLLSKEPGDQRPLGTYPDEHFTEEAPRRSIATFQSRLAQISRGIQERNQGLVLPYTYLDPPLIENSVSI

CNc1oc(-c2cccc3ccccc23)nc1C#N [Compound 1, 5-(Methylamino)-2-(naphthalen-1-yl)oxazole-4-carbonitrile]
Papp [1]: 1.5 ×10⁻⁶ cm/s
stability in aqueous solutions [2]: stable
cellular protection in HT22 cells ([3]; 5 μM concentration): cellular protection
protection against oxidative glutamate toxicity in HT22 cells [3]: protective against oxidative glutamate toxicity; also recorded: dose-dependent protection
infarct size, transient focal ischemia ([4]; 10 mg/kg): did not change the infarct
infarct size, transient focal ischemia ([4]; 25 mg/kg): significantly protective
infarct size, transient focal ischemia ([4]; 50 mg/kg): significantly protective
IC50 [5]: > 100 µM
hemorrhage in the ischemic hemisphere of warfarin-treated mice treated with tPA ([6]; 2 h ischemia, tPA 4 h after onset, 50 mg/kg i.p. concurrently with tPA): significantly reduced
hemorrhage in the ischemic hemisphere of warfarin-treated mice ([6]; 3 h occlusion, 50 mg/kg i.p. 3 h after onset of ischemia): significantly reduced
Mouse Plasma Stability remaining at 2 hours [7]: 100%
infarct size, permanent focal ischemia [8]: significantly reduced infarct size
Permeability (PAMPA) [9]: 723 10^−6 cm/s
AUC(0-inf) [10, 16]: 35.5 µM·h
Tmax [10, 16]: 30 min
half-life ([10]; male, CD1, mouse, brain, ip, 30 mg/kg, T1/2 (Brain), mouse, 30 mpk IP): ~60 min
AUC(0-inf) [10, 17]: 13 µM·h
Cmax [10, 17]: 13.8 µM
Tmax [10, 17]: 15 min
half-life ([10]; male, CD1, mouse, plasma, ip, 30 mg/kg, T1/2 (Plasma), mouse, 30 mpk IP): ~60 min
Cmax (Brain) ([10]; mouse, 30 mpk IP, brain): 28.8 µM
microsomal stability without NADPH [11]: no degradation
Kinetic Solubility [12]: 1.2 µM

CNc1oc(-c2ccc3ccccc3c2)nc1C#N [Compound 2, 5-(Methylamino)-2-(naphthalen-2-yl)oxazole-4-carbonitrile]
IC50 [13]: > 30 µM

CNc1oc(-c2cccc3cnccc23)nc1C#N [Compound 3, 2-(Isoquinolin-5-yl)-5-(methylamino)oxazole-4-carbonitrile]
IC50 [13, 18]: > 30 µM

CNc1oc(-c2cccc3nccnc23)nc1C#N [Compound 6, 5-(Methylamino)-2-(quinoxalin-5-yl)oxazole-4-carbonitrile]
IC50 [13, 18]: > 40 µM

CNc1oc(-c2cccc(Cl)c2Cl)nc1C#N [Compound 7, 2-(2,3-Dichlorophenyl)-5-(methylamino)oxazole-4-carbonitrile]
protection against glutamate-induced cell death in HT22 cells ([3]; concentration of 10 μM): some protection
IC50 [14]: > 100 µM

CNc1oc(-c2ccc(Cl)c(Cl)c2)nc1C#N [Compound 8, 2-(3,4-Dichlorophenyl)-5-(methylamino)oxazole-4-carbonitrile]
protection against glutamate-induced cell death in HT22 cells ([3]; concentrations of 2 to 10): dose-dependent cell protective effect

CNc1oc(-c2ccc3c(c2)OCCO3)nc1C#N [Compound 9, 2-(2,3-Dihydrobenzo[b][1,4]dioxin-6-yl)-5-(methylamino)oxazole-4-carbonitrile]
IC50 [13, 18]: > 40 µM

CNc1oc(-c2ccc(-c3ccccc3)cc2)nc1C#N [Compound 11, 2-([1,1′-Biphenyl]-4-yl)-5-(methylamino)oxazole-4-carbonitrile]
protection against oxidative glutamate toxicity in HT22 cells [3]: protected HT22 cells against oxidative stress
12/15-LOX inhibition in words [13]: did not inhibit human 12/15-LOX

CNc1oc(-c2ccc3cc[nH]c3c2)nc1C#N [Compound 13, 2-(1H-indol-6-yl)-5-(methylamino)oxazole-4-carbonitrile]
IC50 [13]: > 40 µM

CC(C)Nc1oc(-c2cccc3ccccc23)nc1C#N [Compound 26, 5-(Isopropylamino)-2-(naphthalen-1-yl)oxazole-4-carbonitrile]
12/15-LOX inhibition in words [13]: significantly reduced the potency

N#Cc1nc(-c2cccc3ccccc23)oc1NC1CNC1 [Compound 31, 5-(Azetidin-3-ylamino)-2-(naphthalen-1-yl)oxazole-4-carbonitrile]
protection against oxidative glutamate toxicity in HT22 cells [3]: protected HT22 cells against oxidative stress
12/15-LOX inhibition in words [13]: did not inhibit human 12/15-LOX

CNc1sc(-c2cccc3ccccc23)nc1C#N [Compound 32, 5-(methylamino)-2-(naphthalen-1-yl)thiazole-4-carbonitrile]
IC50 [5]: > 40 µM
IC50 [15]: > 100 µM
